Experimental data published in patent EP1923473B1, “Bis-diglycolamides (BISDGA) as new extractants for lanthanides [Ln(III)] and actinides [An(III)] from aqueous high-level wastes” (Universidad Autónoma de Madrid, priority 2006, dated 2008).

Columns and labels:
Assay type in all cases: physicochemical
[1] = Batch extraction from simulated HLLW from the PUREX process; conditions: 0.1 mol/L in TPH/1-octanol (90:10)
Source text: (§1) The feed solution used for the extraction tests is a simulated solution of an HLLW from the PUREX process, the composition of which is shown in Table 4. Table 4: Composition of the simulated HLLW-PUREX solution used for the extraction tests
(§2) The composition of the HLLW corresponds to a burn-up of 33 GWd/tHM, the generated volume of HLLW being 5000 1/t of fuel. The feed was spiked with ^241Am, ^244Cm, ^252Cf and ^152Eu. Oxalic acid and N-(2-hydroxyethyl)ethylenediaminotriacetate (HEDTA) were also added before the extraction tests.
(§3) 500 µL of the aqueous and organic phases were spiked with 10 µL of a tracer solution containing 241Am, 244Cm, 252Cf and ^152Eu, and were equilibrated for 10 minutes while they were stirred vigorously in a vortex stirrer. After the separation of the phases by centrifugation, 200 µL aliquots of each phase were taken for the determination of the concentration of ^241Am and ^152Eu using a high-purity germanium spectrometer system (EG&G Ortec). The nuclides ^241Am, ^244Cm and ^252Cf were measured by alpha spectrometry with an α-Analyst device of the company Canberra-Packard GmbH, Germany.
(§4) The concentrations of the stable elements were determined by mass spectrometry with an inductively coupled plasma source (ICP-MS) in a DRC Elan 6100 device of Perkin Elmer Sciex. The aqueous phase was measured directly after the appropriate dilution. The organic phase was analyzed after having mineralized the organic matter by microwave acid digestion and subsequent dilution.
(§5) The distribution coefficients were calculated for each element according to section C).
(§6) Extraction experiments were carried out with said simulated HLLW in a pure form and also adding oxalic acid and HEDTA to it.

[2] = Batch extraction from simulated HLLW from the PUREX process, alpha spectrometry; conditions: 0.1 mol/L in TPH/1-octanol (90:10)
Source text: as §1, §2, §3, §4, §5
(§7) A 0.1 mol/L solution of compound 4 in the "TPH/1-octanol (90:10)%vol" mixture was prepared. Extraction experiments were carried out with said simulated HLLW in a pure form and also adding oxalic acid and HEDTA to it. These complexing agents have shown to be effective in the DIAMEX process for the complexing of Mo, Zr (H2C2O4) and Pd (HEDTA).
as §6

[3] = Batch extraction from simulated HLLW from the PUREX process; conditions: for Distribution coefficients Sr: 0.1 mol/L in TPH/1-octanol (90:10)
Description: as §1
The composition of the HLLW corresponds to a burn-up of 33 GWd/tHM, the generated volume of HLLW being 5000 1/t of fuel. […] Oxalic acid and N-(2-hydroxyethyl)ethylenediaminotriacetate (HEDTA) were also added before the extraction tests.
as §4, §5, §6, §6

[4] = as above; conditions: 0.1 mol/L in TPH/1-octanol (90:10); remark: listed apart in the source
Source text: as §1, §2, §3, §4, §5, §7

[5] = Extraction capability at different nitric acid concentrations in the aqueous phase; conditions: 0.1 mol/L in 1-octanol or TPH/1-octanol mixtures
Description: The organic solutions were prepared as indicated previously in section A). The aqueous solutions consisted of nitric acid solutions at different concentrations (0.06 mol/L, 0.11 mol/L, 0.65 mol/L, 1.0 mol/L, 3.1 mol/L and 6.7 mol/L) each of them spiked with 600 Bq of ^152Eu and 600 Bq of ^241Am. The nitric acid concentration of these solutions was determined by a potentiometric titration before and after the extraction equilibrium.
The organic solutions of the compound to be studied were equilibrated with the corresponding aqueous solution, according to the different nitric acid concentrations considered, as indicated previously in section B).
600 µL of equilibrated organic phase were contacted with 600 µL of the aqueous phase of the corresponding nitric acid concentration. […]
The influence of the concentration of aqueous nitric acid of the aqueous phase, from 0.05 mol/L to 7 mol/L, on the extraction of Am/Eu with compound 4 was studied in different TPH/1-octanol mixtures as solvent, and also in 100% 1-octanol. To that end, the distribution coefficients of Am(III) and Eu(III) were determined for compound 4 dissolved at 0.1 mol/L in 1-octanol and in the following TPH/1-octanol mixtures: 50:50, 75:25 and 90:10 by volume, for the following nitric acid concentrations of the solution containing Am(III)/Eu(III): 0.06 mol/L; 0.11 mol/L; 0.65 mol/L; 1.0 mol/L; 3.1 mol/L and 6.7 mol/L. […]

[6] = Oxalic acid 0.2 mol/L, HEDTA 0.05 mol/L, TBP 0.5 mol/L
[7] = Oxalic acid 0.2 mol/L, HEDTA 0.05 mol/L, TBP No
[8] = Oxalic acid 0.3 mol/L, HEDTA 0.05 mol/L, TBP 0.5 mol/L
[9] = Oxalic acid 0.3 mol/L, HEDTA 0.05 mol/L, TBP No
[10] = Oxalic acid No, HEDTA No, TBP 0.5 mol/L
[11] = Oxalic acid No, HEDTA No, TBP No

**Q.** With “2-Dioctylcarbamoylmethoxy-N-[3-[3-(2-dioctylcarbamoyl-methoxyacetylamino)propoxy]propyl]acetamide [Compound 18]” as the substance, how does the “Distribution coefficients Cr” value [1, 6] read?
**A.** The value was 0.006.

**Q.** And the “Distribution coefficients Cu” value [1, 6]?
**A.** The value was 0.085.

**Q.** What about the “Distribution coefficients Fe” value [1, 6] of the same substance?
**A.** Its value is 0.001.

**Q.** What about the “Distribution coefficients Ni” value [1, 6] of the same substance?
**A.** Its value is 0.015.

**Q.** And the “Distribution coefficients Cr” value [1, 7]?
**A.** Its value is 0.006.

**Q.** And the “Distribution coefficients Cu” value [1, 7]?
**A.** The value was 0.075.

**Q.** What about the “Distribution coefficients Fe” value [1, 7] of the same substance?
**A.** The value was 0.001.

**Q.** And the “Distribution coefficients Ni” value [1, 7]?
**A.** Its value is 0.014.

**Q.** And the “Distribution coefficients Cr” value [1, 8]?
**A.** The value was 0.006.

**Q.** What about the “Distribution coefficients Cu” value [1, 8] of the same substance?
**A.** The value was 0.093.

**Q.** And the “Distribution coefficients Fe” value [1, 8]?
**A.** The value was 0.009.

**Q.** What about the “Distribution coefficients Ni” value [1, 8] of the same substance?
**A.** The value was 0.015.

**Q.** And the “Distribution coefficients Cr” value [1, 9]?
**A.** The value was 0.006.

**Q.** And the “Distribution coefficients Cu” value [1, 9]?
**A.** Its value is 0.083.

**Q.** What about the “Distribution coefficients Fe” value [1, 9] of the same substance?
**A.** Its value is 0.001.

**Q.** And the “Distribution coefficients Ni” value [1, 9]?
**A.** Its value is 0.014.

**Q.** And the “Distribution coefficients Cr” value [1, 10]?
**A.** The value was 0.006.

**Q.** And the “Distribution coefficients Cu” value [1, 10]?
**A.** Its value is 0.067.

**Q.** What about the “Distribution coefficients Fe” value [1, 10] of the same substance?
**A.** Its value is 0.001.

**Q.** And the “Distribution coefficients Ni” value [1, 10]?
**A.** Its value is 0.014.

**Q.** What about the “Distribution coefficients Cr” value [1, 11] of the same substance?
**A.** Its value is 0.006.

**Q.** And the “Distribution coefficients Cu” value [1, 11]?
**A.** Its value is 0.064.

**Q.** And the “Distribution coefficients Fe” value [1, 11]?
**A.** The value was 0.001.

**Q.** And the “Distribution coefficients Ni” value [1, 11]?
**A.** Its value is 0.014.

**Q.** What about the “Distribution coefficients Am-241, α” value [2, 6] of the same substance?
**A.** The value was 55.

**Q.** And the “Distribution coefficients Am-241, α” value [2, 7]?
**A.** Its value is 46.

**Q.** What about the “Distribution coefficients Am-241, α” value [2, 8] of the same substance?
**A.** The value was 90.

**Q.** What about the “Distribution coefficients Am-241, α” value [2, 9] of the same substance?
**A.** Its value is 87.

**Q.** And the “Distribution coefficients Am-241, α” value [2, 10]?
**A.** Its value is 56.

**Q.** And the “Distribution coefficients Am-241, α” value [2, 11]?
**A.** Its value is 96.

**Q.** Which “factor by which the Sr distribution coefficient is lower than that obtained with TODGA” value [3] does the source give for “2-Dioctylcarbamoylmethoxy-N-[3-[(2-dioctylcarbamoyl-methoxy-acetylamino)methyl]benzyl]acetamide [Compound 4]” here?
**A.** The value was 10.

**Q.** And the Dsr ([3]; 0.1 mol/L in TPH/1-octanol (90:10)%vol, summary of all conditions)?
**A.** The Dsr was < 0.13.

**Q.** And the “Distribution coefficients Sr” value [3, 6]?
**A.** Its value is 0.071.

**Q.** And the “Distribution coefficients Sr” value [3, 7]?
**A.** The value was 0.110.

**Q.** And the “Distribution coefficients Sr” value [3, 8]?
**A.** The value was 0.099.

**Q.** And the “Distribution coefficients Sr” value [3, 9]?
**A.** The value was 0.132.

**Q.** And the “Distribution coefficients Sr” value [3, 10]?
**A.** Its value is 0.061.

**Q.** What about the “Distribution coefficients Sr” value [3, 11] of the same substance?
**A.** The value was 0.071.

**Q.** And the “Distribution coefficients Dy” value [4, 6]?
**A.** Its value is 86.

**Q.** And the “Distribution coefficients Sb” value [4, 6]?
**A.** Its value is 0.012.

**Q.** What about the “Distribution coefficients Sn” value [4, 6] of the same substance?
**A.** Its value is 0.0087.

**Q.** And the “Distribution coefficients Tb” value [4, 6]?
**A.** The value was 54.

**Q.** What about the “Distribution coefficients Te” value [4, 6] of the same substance?
**A.** The value was 0.0012.

**Q.** What about the “Distribution coefficients Dy” value [4, 7] of the same substance?
**A.** The value was 171.

**Q.** What about the “Distribution coefficients Sb” value [4, 7] of the same substance?
**A.** Its value is 0.011.

**Q.** And the “Distribution coefficients Sn” value [4, 7]?
**A.** The value was 0.0076.

**Q.** What about the “Distribution coefficients Tb” value [4, 7] of the same substance?
**A.** Its value is 153.

**Q.** And the “Distribution coefficients Te” value [4, 7]?
**A.** The value was 0.0014.

**Q.** What about the “Distribution coefficients Dy” value [4, 8] of the same substance?
**A.** The value was 184.

**Q.** And the “Distribution coefficients Sb” value [4, 8]?
**A.** Its value is 0.011.

**Q.** What about the “Distribution coefficients Sn” value [4, 8] of the same substance?
**A.** The value was 0.0072.

**Q.** And the “Distribution coefficients Tb” value [4, 8]?
**A.** Its value is 77.

**Q.** What about the “Distribution coefficients Te” value [4, 8] of the same substance?
**A.** The value was 0.0011.

**Q.** And the “Distribution coefficients Dy” value [4, 9]?
**A.** The value was 195.

**Q.** And the “Distribution coefficients Sb” value [4, 9]?
**A.** Its value is 0.012.

**Q.** And the “Distribution coefficients Sn” value [4, 9]?
**A.** Its value is 0.0092.

**Q.** What about the “Distribution coefficients Tb” value [4, 9] of the same substance?
**A.** Its value is 107.

**Q.** What about the “Distribution coefficients Te” value [4, 9] of the same substance?
**A.** The value was 0.0012.

**Q.** What about the “Distribution coefficients Dy” value [4, 10] of the same substance?
**A.** The value was 64.

**Q.** And the “Distribution coefficients Sb” value [4, 10]?
**A.** Its value is 0.011.

**Q.** What about the “Distribution coefficients Sn” value [4, 10] of the same substance?
**A.** The value was 0.0089.

**Q.** And the “Distribution coefficients Tb” value [4, 10]?
**A.** Its value is 57.

**Q.** What about the “Distribution coefficients Te” value [4, 10] of the same substance?
**A.** The value was 0.0012.

**Q.** And the “Distribution coefficients Dy” value [4, 11]?
**A.** The value was 141.

**Q.** What about the “Distribution coefficients Sb” value [4, 11] of the same substance?
**A.** Its value is 0.012.

**Q.** What about the “Distribution coefficients Sn” value [4, 11] of the same substance?
**A.** The value was 0.0073.

**Q.** And the “Distribution coefficients Tb” value [4, 11]?
**A.** The value was 123.

**Q.** What about the “Distribution coefficients Te” value [4, 11] of the same substance?
**A.** Its value is 0.0011.

**Q.** And the “Distribution coefficients Am-241, α” value [2, 6]?
**A.** The value was 52.

**Q.** And the “Distribution coefficients Am-241, α” value [2, 7]?
**A.** Its value is 158.

**Q.** And the “Distribution coefficients Am-241, α” value [2, 8]?
**A.** The value was 83.

**Q.** And the “Distribution coefficients Am-241, α” value [2, 9]?
**A.** Its value is 164.

**Q.** What about the “Distribution coefficients Am-241, α” value [2, 10] of the same substance?
**A.** Its value is 58.

**Q.** What about the “Distribution coefficients Am-241, α” value [2, 11] of the same substance?
**A.** Its value is 112.

**Q.** What about the “extraction capability at diluted nitric acid concentrations” value [5] of the same substance?
**A.** The value was “very low”.
